The results in this text go back to patent US9403846B2, “Carbocyclic- and heterocyclic-substituted hexahydropyrano[3,4-d][1,3]thiazin-2-amine compounds” (Pfizer Inc., priority 2012, dated 2016).

Where a name gives a salt, the structure may show the parent alone. Bounds are passed on as bounds.

Assay [1] concerns the target BACE1 enzyme (Homo sapiens (Human), UniProt P56817). The assay can be described thus: BACE1 Cell-Free Assay (fluorescence polarization).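 For all read-outs here: Affinity-purified soluble BACE1 from transfected CHO-K1 cells cleaving a biotinylated, Oregon Green-labelled synthetic APP peptide, 3 h at 37 °C, cleavage followed by fluorescence polarization change.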 Type of assay: biochemical. To be noted: for IC50: geometric mean of 2-3 determinations (Ex. 2: ≧6 determinations); for biological activity (in words, see Table 3): statement used to assign absolute stereochemistry, refers to Table 3.

The test system of assay [2] is sAPPβ levels in H4 human neuroglioma cells over-expressing the wild-type human APP695. Put plainly: Whole Cell Assay (In Vitro sAPPb Assay). The following applies: 18 hours, geometric mean of 2-3 determinations (Ex. 2: ≧6 determinations). The format is cell-based.
Assay [3] has as its target BACE2 enzyme (Homo sapiens (Human), UniProt Q9Y5Z0). The assay can be described thus: BACE2 Assay (cell-free, fluorescence polarization). The format is biochemical. To be noted: single determination. How it is done:
This assay measures the inhibition of the BACE2 enzyme as it cleaves a non-native peptide. A synthetic substrate that can be cleaved by BACE2 having N-terminal biotin and made fluorescent by the covalent attachment of Oregon Green at the Cys residue is used to assay BACE2 activity in the presence or absence of the inhibitory compounds. The substrate is Biotin-[…]-C(Oregon green)-KK-OH. The BACE2 enzyme is available from Enzo Life Sciences (Cat # BML-SE550). Compounds are incubated in a ½ log dose response curve from a top concentration of 100 μM with BACE2 enzyme and the biotinylated fluorescent peptide in 384-well black plates (Thermo Scientific #4318). BACE2 is at a final concentration of 2.5 nM with a final concentration of peptide substrate of 150 nM in a reaction volume of 30 μL assay buffer (100 mM sodium acetate, pH 4.5 (brought to pH with acetic acid), and 0.001% Tween-20). Plates are covered and incubated for 3 hours at 37° C. The reaction is stopped with the addition of 30 μL of 1.5 μM Streptavidin (Pierce, #21125). After a 10 minute incubation at room temperature, plates are read on a PerkinElmer EnVision for fluorescence polarization (Ex485 nm/Em530 nm). The activity of the beta-secretase enzyme is detected by changes in the fluorescence polarization that occur when the substrate is cleaved by the enzyme.
A general note: Fluorescence polarisation rises when a labelled molecule tumbles more slowly, as on binding a larger partner.

Chain of BACE1 enzyme (P56817 46-457): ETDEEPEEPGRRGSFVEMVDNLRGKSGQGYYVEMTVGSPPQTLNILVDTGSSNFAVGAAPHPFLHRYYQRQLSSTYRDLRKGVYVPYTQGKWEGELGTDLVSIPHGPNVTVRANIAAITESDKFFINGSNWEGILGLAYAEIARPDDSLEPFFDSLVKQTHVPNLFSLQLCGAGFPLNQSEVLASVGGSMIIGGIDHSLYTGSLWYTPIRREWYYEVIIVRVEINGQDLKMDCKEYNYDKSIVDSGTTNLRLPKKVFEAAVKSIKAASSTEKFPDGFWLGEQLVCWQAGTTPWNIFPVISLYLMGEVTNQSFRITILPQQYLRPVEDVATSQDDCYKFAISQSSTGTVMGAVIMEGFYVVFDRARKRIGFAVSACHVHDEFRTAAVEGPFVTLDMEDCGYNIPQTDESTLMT
Chain of BACE2 enzyme (Q9Y5Z0 63-518): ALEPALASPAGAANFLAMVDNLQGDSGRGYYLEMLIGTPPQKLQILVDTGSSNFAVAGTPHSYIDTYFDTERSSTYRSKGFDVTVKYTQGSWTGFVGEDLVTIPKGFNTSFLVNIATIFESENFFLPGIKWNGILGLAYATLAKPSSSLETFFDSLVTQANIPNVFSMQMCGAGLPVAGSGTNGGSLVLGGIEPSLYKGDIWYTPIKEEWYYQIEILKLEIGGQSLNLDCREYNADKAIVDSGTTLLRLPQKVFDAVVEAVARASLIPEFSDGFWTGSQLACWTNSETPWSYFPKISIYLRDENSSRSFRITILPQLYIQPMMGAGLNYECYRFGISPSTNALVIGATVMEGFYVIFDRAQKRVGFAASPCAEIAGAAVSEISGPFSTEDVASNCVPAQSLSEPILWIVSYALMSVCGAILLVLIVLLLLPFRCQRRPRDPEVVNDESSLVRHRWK

As a reminder, the IC50 is the concentration that inhibits the measured activity by half. A low value points to inhibition by little substance. Regarding `COC[C@H]1SC(N)=N[C@@]2(c3ccc(F)cc3F)CO[C@@H](C3CC3)C[C@@H]12` (racemic) [Example 5, rel-(4S,4aR,6R,8aS)-6-Cyclopropyl-8a-(2,4-difluorophenyl)-4-(methoxymethyl)-4,4a,5,6,8,8a-hexahydropyrano[3,4-d][1,3]thiazin-2-amine, hydrochloride salt], the values for the IC50 in assay [1] and in assay [2] (Homo sapiens) were 1410 nM and 116 nM, respectively.
Turning to `NC1=N[C@@]2(c3ccc(F)cc3F)CO[C@@H](C3CCCO3)C[C@H]2CS1` (stereo partly drawn) [Example 1, (4aR,6R,8aS)-8a-(2,4-Difluorophenyl)-6-(tetrahydrofuran-2-yl)-4,4a,5,6,8,8a-hexahydropyrano[3,4-d][1,3]thiazin-2-amine, trifluoroacetate salt], the IC50 stood at 1290 nM in assay [3], 447 nM in assay [1] and 73.8 nM in assay [2] (Homo sapiens).
Turning to `NC1=N[C@@]2(c3ccc(F)cc3F)CO[C@@H](C3CC3)C[C@H]2CS1` [Example 2, (4aR,6R,8aS)-6-Cyclopropyl-8a-(2,4-difluorophenyl)-4,4a,5,6,8,8a-hexahydropyrano[3,4-d][1,3]thiazin-2-amine], the figures for the IC50 in assay [3] and in assay [2] (Homo sapiens) were 2260 nM and 24.2 nM, respectively.
For the compound `NC1=N[C@@]2(c3ccc(F)cc3F)CO[C@@H](C3CCO3)C[C@H]2CS1` (stereo partly drawn) [Example 4, (4aR,6R,8aS)-8a-(2,4-Difluorophenyl)-6-(oxetan-2-yl)-4,4a,5,6,8,8a-hexahydropyrano[3,4-d][1,3]thiazin-2-amine], the figures for the IC50 in assay [1] and in assay [2] (Homo sapiens) were 1310 nM and 137 nM, respectively.
Take `NC1=N[C@@]2(c3ccc(F)cc3F)CO[C@@H](C3CC3)C[C@H]2[C@@H](CF)S1` [Example 6, (4S,4aR,6R,8aS)-6-Cyclopropyl-8a-(2,4-difluorophenyl)-4-(fluoromethyl)-4,4a,5,6,8,8a-hexahydropyrano[3,4-d][1,3]thiazin-2-amine, hydrochloride salt]: the figures for the IC50 in assay [1] and in assay [2] (Homo sapiens) were 346 nM and 39.1 nM, respectively.
As to `CC1([C@H]2C[C@H]3CSC(N)=N[C@@]3(c3ccc(F)cc3F)CO2)CC1` [Example 7, (4aR,6R,8aS)-8a-(2,4-Difluorophenyl)-6-(1-methylcyclopropyl)-4,4a,5,6,8,8a-hexahydropyrano[3,4-d][1,3]thiazin-2-amine], the IC50 worked out at 484 nM in assay [1] and 142 nM in assay [2] (Homo sapiens).
Taken in the same sequence, the figures for `NC1=N[C@@]2(c3ccc(F)cc3F)CO[C@@H](CC3CC3)C[C@H]2CS1` [Example 8, (4aR,6S,8aS)-6-(Cyclopropylmethyl)-8a-(2,4-difluorophenyl)-4,4a,5,6,8,8a-hexahydropyrano[3,4-d][1,3]thiazin-2-amine] were 235 nM and 61.2 nM.
As to `NC1=N[C@@]2(c3c(F)cc(F)cc3F)CO[C@@H](C3CC3)C[C@H]2CS1` [Example 9, (4aR,6R,8aS)-6-Cyclopropyl-8a-(2,4,6-trifluorophenyl)-4,4a,5,6,8,8a-hexahydropyrano[3,4-d][1,3]thiazin-2-amine], the IC50 in assay [1] stood at 1050 nM; in assay [2] (Homo sapiens), 57.2 nM.
Take `NC1=N[C@@]2(c3ccc(F)cc3)CO[C@@H](C3CC3)C[C@H]2CS1` [Example 10, (4aR,6R,8aS)-6-Cyclopropyl-8a-(4-fluorophenyl)-4,4a,5,6,8,8a-hexahydropyrano[3,4-d][1,3]thiazin-2-amine]: the IC50 in assay [1] is 572 nM; in assay [2] (Homo sapiens), 89.7 nM.
In the case of `NC1=N[C@@]2(c3cc(F)ccc3F)CO[C@@H](C3CC3)C[C@H]2CS1` [Example 11, (4aR,6R,8aS)-6-Cyclopropyl-8a-(2,5-difluorophenyl)-4,4a,5,6,8,8a-hexahydropyrano[3,4-d][1,3]thiazin-2-amine], the IC50 in assay [1] worked out at 1420 nM; in assay [2] (Homo sapiens), 85.1 nM.
As to `NC1=N[C@@]2(c3c(F)cccc3F)CO[C@@H](C3CC3)C[C@H]2CS1` [Example 12, (4aR,6R,8aS)-6-Cyclopropyl-8a-(2,6-difluorophenyl)-4,4a,5,6,8,8a-hexahydropyrano[3,4-d][1,3]thiazin-2-amine], the IC50 in assay [1] was found to be 395 nM; in assay [2] (Homo sapiens) it was 34.6 nM.
On to `NC1=N[C@@]2(c3ccccc3F)CO[C@@H](C3CC3)C[C@H]2CS1` [Example 13, (4aR,6R,8aS)-6-Cyclopropyl-8a-(2-fluorophenyl)-4,4a,5,6,8,8a-hexahydropyrano[3,4-d][1,3]thiazin-2-amine], for which the IC50 was found to be 422 nM in assay [1] and 40 nM in assay [2] (Homo sapiens).
Turning to `NC1=N[C@@]2(c3ccccc3)CO[C@@H](C3CC3)C[C@H]2CS1` [Example 14, (4aR,6R,8aS)-6-Cyclopropyl-8a-phenyl-4,4a,5,6,8,8a-hexahydropyrano[3,4-d][1,3]thiazin-2-amine], the IC50 in assay [1] came out at 1280 nM; in assay [2] (Homo sapiens) it was 142 nM.
For `Cc1ccc([C@]23CO[C@@H](C4CC4)C[C@H]2CSC(N)=N3)c(F)c1` [Example 15, (4aR,6R,8aS)-6-Cyclopropyl-8a-(2-fluoro-4-methylphenyl)-4,4a,5,6,8,8a-hexahydropyrano[3,4-d][1,3]thiazin-2-amine], the IC50 in assay [1] came to 715 nM; in assay [2] (Homo sapiens), 72.1 nM.
On to `Cc1ccc([C@]23CO[C@@H](C4CC4)C[C@H]2CSC(N)=N3)cc1F` [Example 16, (4aR,6R,8aS)-6-Cyclopropyl-8a-(3-fluoro-4-methylphenyl)-4,4a,5,6,8,8a-hexahydropyrano[3,4-d][1,3]thiazin-2-amine], for which the values for the IC50 in assay [1] and in assay [2] (Homo sapiens) were 897 nM and 92.3 nM, respectively.
In the case of `NC1=N[C@]2(c3ccccc3F)CO[C@H](C3CC3)C[C@@H]2CS1` [Example 17, (4aS,6S,8aR)-6-Cyclopropyl-8a-(2-fluorophenyl)-4,4a,5,6,8,8a-hexahydropyrano[3,4-d][1,3]thiazin-2-amine], the results for the IC50 in assay [1] and in assay [2] (Homo sapiens) were 25700 nM and 1560 nM, respectively.
Take `NC1=N[C@]2(c3ccc(F)cc3)CO[C@H](C3CC3)C[C@@H]2CS1` [Example 18, (4aS,6S,8aR)-6-Cyclopropyl-8a-(4-fluorophenyl)-4,4a,5,6,8,8a-hexahydropyrano[3,4-d][1,3]thiazin-2-amine]: the IC50 in assay [1] is 15600 nM; in assay [2] (Homo sapiens), 2220 nM.
For the compound `CC1(C)CCC([C@H]2C[C@H]3CSC(N)=N[C@@]3(c3ccc(F)cc3F)CO2)O1` (stereo partly drawn) [Example 19, (4aR,6R,8aS)-8a-(2,4-Difluorophenyl)-6-(5,5-dimethyltetrahydrofuran-2-yl)-4,4a,5,6,8,8a-hexahydropyrano[3,4-d][1,3]thiazin-2-amine], the IC50 in assay [1] came out at 184 nM; in assay [2] (Homo sapiens), 17.9 nM.
Taken in the same sequence, the figures for `C[C@@H]1C[C@H]1[C@H]1C[C@H]2CSC(N)=N[C@@]2(c2ccc(F)cc2F)CO1` [Example 20, (4aR,6R,8aS)-8a-(2,4-Difluorophenyl)-6-[(1R,2R)-2-methylcyclopropyl]-4,4a,5,6,8,8a-hexahydropyrano[3,4-d][1,3]thiazin-2-amine] were 116 nM and 16.2 nM.
On to `NC1=N[C@@]2(c3ccc(F)cc3F)CO[C@@H]([C@@H]3CCCO3)C[C@H]2CS1` [Example 21, (4aR,6R,8aS)-8a-(2,4-Difluorophenyl)-6-[(2S)-tetrahydrofuran-2-yl]-4,4a,5,6,8,8a-hexahydropyrano[3,4-d][1,3]thiazin-2-amine], for which the IC50 in assay [1] came to 302 nM; in assay [2] (Homo sapiens) it was 39.7 nM.
For `NC1=N[C@]2(c3ccc(F)cc3F)CO[C@H](C3CC3)C[C@@H]2CS1` [Example C23, (4aS,6S,8aR)-6-cyclopropyl-8a-(2,4-difluorophenyl)-4,4a,5,6,8,8a-hexahydropyrano[3,4-d][1,3]thiazin-2-amine], in assay [1], the “biological activity (in words, see Table 3)” value (“biological activity” for short) was “essentially inactive”. This compound also registered an IC50 in assay [2] of 17300 nM.
With `Cl.NC1=N[C@]2(c3ccc(F)cc3F)CO[C@H](C3CC3)C[C@@H]2[C@H](CF)S1` [Example C48, (4R,4aS,6S,8aR)-6-cyclopropyl-8a-(2,4-difluorophenyl)-4-(fluoromethyl)-4,4a,5,6,8,8a-hexahydropyrano[3,4-d][1,3]thiazin-2-amine, hydrochloride salt], in assay [1], the IC50 was more than 100000 nM and the “biological activity” value is “inactive”. In assay [2] (Homo sapiens), the concentration for half-maximal inhibition (IC50) is more than 30000 nM.
`CC1([C@@H]2C[C@@H]3CSC(N)=N[C@]3(c3ccc(F)cc3F)CO2)CC1` [Example C61, (4aS,6S,8aR)-8a-(2,4-difluorophenyl)-6-(1-methylcyclopropyl)-4,4a,5,6,8,8a-hexahydropyrano[3,4-d][1,3]thiazin-2-amine]: in assay [1], the half-inhibitory concentration (IC50) was determined as 37000 nM and the “biological activity” value was “essentially inactive”. For the same compound, in assay [2] (Homo sapiens), 2890 nM corresponded to half-maximal inhibition (IC50).
For the compound `NC1=N[C@]2(c3ccc(F)cc3F)CO[C@H](CC3CC3)C[C@@H]2CS1` [Example C74, (4aS,6R,8aR)-6-(cyclopropylmethyl)-8a-(2,4-difluorophenyl)-4,4a,5,6,8,8a-hexahydropyrano[3,4-d][1,3]thiazin-2-amine], in assay [1], the IC50 is more than 86000 nM and the “biological activity” value is “essentially inactive”. In addition, half-maximal inhibition in assay [2] (Homo sapiens) (IC50) was put at 7400 nM.
